The target of data set [1] is T1, human CRF2α receptor (Homo sapiens, UniProt Q13324).
T1 construct: expressed in transfected cells; host or cells: TeloHEAC
T1 sequence (Q13324 1-411): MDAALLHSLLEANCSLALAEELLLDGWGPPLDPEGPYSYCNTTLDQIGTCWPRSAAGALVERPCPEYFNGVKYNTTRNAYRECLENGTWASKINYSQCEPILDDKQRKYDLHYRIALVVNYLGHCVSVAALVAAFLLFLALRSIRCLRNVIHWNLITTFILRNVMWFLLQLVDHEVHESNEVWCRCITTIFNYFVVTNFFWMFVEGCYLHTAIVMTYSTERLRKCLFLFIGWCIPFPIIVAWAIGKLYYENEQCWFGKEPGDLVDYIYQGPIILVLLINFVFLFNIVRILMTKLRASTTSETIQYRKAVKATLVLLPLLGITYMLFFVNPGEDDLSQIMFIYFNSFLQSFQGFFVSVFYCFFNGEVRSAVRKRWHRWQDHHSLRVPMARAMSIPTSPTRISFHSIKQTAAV
Kind of data set: cAMP agonism at human CRF2 α receptor in TeloHEAC cells (Example 7). The class given is cell-based. The settings on record: cAMP HTRF, TeloHEAC cells stably expressing human CRF2 α, 0% HSA; read-out: EC50 [nM], 0% HSA. Put shortly:
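Thawed frozen stably transfected cells in HBSS/20 mM HEPES (0% or 0.1% HSA) plus 2 mM IBMX were exposed to compound at 2000 cells/well for 30 min at room temperature. Intracellular cAMP was read by HTRF (665/620 nm ratio) after 1 h lysis; EC50 was derived with 1000 nM urocortin 2 set as 100%.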

Data set [2] is described as follows: Solubility in buffer systems by UPLC-UV (Example 13). The class given is physicochemical. The settings on record: pH 7.4, Solubility in Buffer C [mg/ml]. The method in brief: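 The supernatant was diluted 1:10 and quantified by UPLC-UV peak area against a reference standard curve, correcting for sequence-based extinction coefficients.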
Data set [3] addresses T2, recombinant human CRF2 (Homo sapiens, UniProt Q13324).
T2 construct: expressed in transfected cells; host or cells: HEK
T2 sequence (Q13324 1-411): T1 sequence (Q13324 1-411)
Kind of data set: CRF2a (h) agonist radioligand binding, [125]sauvagine, HEK cell membranes (Example 11). To be noted: competition with [125]sauvagine 0.1 nM. The method, then:
Receptor binding of the compounds was assessed using a CRF2a (h) (agonist radioligand) assay.
HEK cells expressing recombinant human CRF2 were used as a source of receptor for membrane preparation.
IC50 values (concentration causing a half-maximal inhibition of control specific binding) and Hill coefficients (nH) were determined by non-linear regression analysis of the competition curves generated with mean replicate values using Hill equation curve fitting. The inhibition constants (Ki) were calculated using the Cheng Prusoff equation [Ki=IC50/(1+L/KD) where L is the concentration of radioligand in the assay, and KD is the affinity of the radioligand for the receptor). A Scatchard plot was used to determine the KD.

Starred links: 1 amine or outer side, 2 acyl side, 3 side chain; linkers in the order of their positions; H or OH if unused. Residues, ends and D or L forms follow the SMILES beside them. Groups on a side chain read outwards from the residue. *: point of attachment. γGlu = O=C(O)[C@H](CCC(=O)[*:2])N[*:1]; Palmitoyl = CCCCCCCCCCCCCCCC(=O)* Bounds are passed on as bounds.

With `CCCCCCCCCCCCCCCC(=O)N[C@@H](CCC(=O)NCCCC[C@H](NC(=O)[C@H](CC(C)C)NC(=O)[C@H](CCCCN)NC(=O)[C@@H](NC(=O)[C@@H]1CCCN1C(=O)[C@@H](NC(=O)[C@H](CC(=O)O)NC(=O)[C@H](CC(C)C)NC(=O)[C@H](CO)NC(=O)[C@H](CC(C)C)NC(=O)[C@@H](NC(=O)[C@@H](N)[C@@H](C)CC)C(C)C)C(C)C)[C@@H](C)CC)C(=O)N[C@@H](CCCCN)C(=O)N[C@H](C(=O)N[C@@H](CC(C)C)C(=O)N[C@@H](CC(C)C)C(=O)N[C@@H](CCC(=O)O)C(=O)N[C@@H](CCC(N)=O)C(=O)N[C@@H](CCC(=O)O)C(=O)N[C@@H](CCCCN)C(=O)N[C@@H](CCC(N)=O)C(=O)N[C@@H](CCCCN)C(=O)N[C@@H](CCCCN)C(=O)N[C@@H](CCC(N)=O)C(=O)N[C@@H](CCCNC(=N)N)C(=O)N[C@@H](CCC(=O)O)C(=O)N[C@@H](CCC(N)=O)C(=O)N[C@@H](C)C(=O)N[C@@H](CCC(=O)O)C(=O)N[C@H](C(=O)N[C@@H](CC(N)=O)C(=O)N[C@@H](CCCCN)C(=O)N[C@@H](CCC(N)=O)C(=O)N[C@H](C(=O)N[C@@H](CC(C)C)C(=O)N[C@@H](C)C(=O)N[C@@H](CCC(N)=O)C(=O)N[C@H](C(N)=O)C(C)C)[C@@H](C)CC)[C@@H](C)O)[C@@H](C)CC)C(=O)O` [compound 17] (H-IVLSLDVPIKLK([γGlu-Palmitoyl])KILLEQEKQKKQREQAETNKQILAQV-NH2; N-terminus assumed), the EC50 (as a rule, the concentration at which the effect is half-maximal) in data set [1] was 0.02 nM. Further, the solubility (as a rule, the dissolved amount per volume that the medium holds) at 1 h in data set [2] was above 10.7 mg/mL. Besides, the “nH (Hill coefficient)” value in data set [3] amounted to 1.5.

The values above are taken from patent US12679878B2, “CRF2 receptor agonists and their use in therapy” (SANOFI, priority 2020, dated 2026).
